Results from US4540700A, “Treatment of diabetic complications with certain spiro-imidazolidine-diones” (Alcon Laboratories, Inc., priority 1984, dated 1985).
“And” between values parts separate entries of the source, which are not always exact repeats. Identical values can stand only once.

Tested on: cataract formation in galactocemic rats
Test: in vivo dose response by intubation (per oral) in galactocemic rats, cataract (vacuole) formation
Set-up: species or system Charles River CD (Sprague-Dawley derived) male rats
Experimental: B. In vivo dose response studies were conducted to test the in vivo activity of the following compounds by intubation (per oral) in galactocemic rats on a 30% galactose diet previously described:
Stock suspensions of the test compounds and all dilutions of the compound were formulated with 0.03% by weight Tween 80.
Healthy, Charles River CD (outbred albino, Sprague-Dawley derived) male rats, aged 20-30 days, without observable ocular defects and ranging in weight from 35-45 grams, were acclimated to experimental conditions (in quarantine) for two days prior to beginning the study.
Rats were individually assigned to one of twenty-three groups according to a random number schedule. Two rats, belonging to the same drug-diet treatment group, were housed per cage. Treatment and control groups consisted of six (6) rats each with no replacement in the event of death, and were designated as follows:
Lenses of all eyes were examined with a hand-held ophthalmoscope in the early stages of cataract development and a penlight for the stages, snowflake-like, snowflake, and nuclear cataract. Lens grading occurred every day for the first ten study days, and then every other day until study Day 14.
The relative potency determination was made at 7 drug levels over half log dose intervals. The response (percent cataracts formed and/or the time to cataract formation) was plotted against mg/kg and/or moles/kg.
The study was directed to the suppression and/or elimination of the initial stages of cataract development characterized by vacuoles or snowflake-likeopacities only. It was assumed therefore that suppression and/or elimination of vacuoles or lens opacification by the test drugs affects the transport, absorption and/or metabolism of galactose in such a manner as to prevent subsequent osmotic disturbances normally leading to tissue degeneration and advanced cataract. Advanced cataract defined as stages 2-4 of the Sipple classification was assumed to be of secondary importance to the etiology of cataract inhibition.
In the event where cataract stage other than vacuole formed, such as snowflake-like opacities, this cataract was counted similarly as vacuole in percent cataract formation.
This study yielded this expected effect in the control groups.
All animals were fed Purina Laboratory Chow and water, ad libitum, for the two day acclimation period. All drugs were dosed orally by intubation using an animal feeding needle (Popper and Sons), 18 or 20 gauge, attached to a 1 or 3 ml syringe. Once the dosing time schedule was established, the schedule was followed throughout the study to compensate for any diurnal variation.
The animals were kept on a twelve hour day/night cycle. The temperature and humidity were determined each day at the scheduled dosing time of 1:00 p.m.
The animals were weighed every other day and adjustments to dosage amounts to compensate for weight gain were made each day prior to the dose time. All food was routinely withheld from all animal groups for four hours (9:00 a.m.) prior to the drug dose and restored two hours (3:00 p.m.) post-dose. Otherwise sufficient amounts of chow or diet mixture were maintained in the food hopper to allow the animals to eat ad libitum. There were two days of drug dosage with the animals remaining on Purina Laboratory Chow (Days 1 and 2). The 30% galactose diet mixture was introduced to the animals two hours post-dose on Day 3 which constituted Day 1 of the study.
All eyes were examined with a hand-held ophthalmoscope and/or penlight at the times designated in the Experimental Design section.
It has been found in previous studies that dilation of the eye with a mydriactic (i.e. Mydriacyl) is not necessary for accurate grading, due to the semi-transparent nature of the rat iris. In the early stages (i.e., grades -, ±, and +) the lens was observed by reflecting the ophthalmoscope beam off the retina back through the lens and iris. Using this technique, vacuoles appear as dark, almost opaque patches. […]

Measured: Percent of Rat Eyes With at Least Vacuoles Formed

O=C1NC(=O)C2(CCOc3ccc(F)cc32)N1 (racemic) [Sarges Racemic, dl-spiro-(6-fluorochroman-4,4'-imidazolidine)-2',5'-dione, reference compound]
0%: 0.126 mg/kg p.o., Day 0 | 0.126 mg/kg p.o., Day 1 | 0.126 mg/kg p.o., Day 2 | 0.126 mg/kg p.o., Day 3 | 0.126 mg/kg p.o., Day 4 | 0.126 mg/kg p.o., Day 5 | 0.4 mg/kg p.o., Day 0 | 0.4 mg/kg p.o., Day 1 | 0.4 mg/kg p.o., Day 2 | 0.4 mg/kg p.o., Day 3 | 0.4 mg/kg p.o., Day 4 | 0.4 mg/kg p.o., Day 5 | 1.26 mg/kg p.o., Day 0 | 1.26 mg/kg p.o., Day 1 | 1.26 mg/kg p.o., Day 2 | 1.26 mg/kg p.o., Day 3 | 1.26 mg/kg p.o., Day 4 | 1.26 mg/kg p.o., Day 5 | 1.26 mg/kg p.o., Day 6 | 1.26 mg/kg p.o., Day 7 | 4.0 mg/kg p.o., Day 0 | 4.0 mg/kg p.o., Day 1 | 4.0 mg/kg p.o., Day 2 | 4.0 mg/kg p.o., Day 3 | 4.0 mg/kg p.o., Day 4 | 4.0 mg/kg p.o., Day 5 | 4.0 mg/kg p.o., Day 6 | 4.0 mg/kg p.o., Day 7 | 4.0 mg/kg p.o., Day 8 | 4.0 mg/kg p.o., Day 9 | 4.0 mg/kg p.o., Day 10 | 12.6 mg/kg p.o., Day 0 | 12.6 mg/kg p.o., Day 1 | 12.6 mg/kg p.o., Day 2 | 12.6 mg/kg p.o., Day 3 | 12.6 mg/kg p.o., Day 4 | 12.6 mg/kg p.o., Day 5 | 12.6 mg/kg p.o., Day 6 | 12.6 mg/kg p.o., Day 7 | 12.6 mg/kg p.o., Day 8 | 12.6 mg/kg p.o., Day 9 | 12.6 mg/kg p.o., Day 10 | 12.6 mg/kg p.o., Day 12 | 40 mg/kg p.o., Day 0 | 40 mg/kg p.o., Day 1 | 40 mg/kg p.o., Day 2 | 40 mg/kg p.o., Day 3 | 40 mg/kg p.o., Day 4 | 40 mg/kg p.o., Day 5 | 40 mg/kg p.o., Day 6 | 40 mg/kg p.o., Day 7 | 40 mg/kg p.o., Day 8 | 40 mg/kg p.o., Day 9 | 40 mg/kg p.o., Day 10 | 40 mg/kg p.o., Day 12 | 40 mg/kg p.o., Day 14
33%: 0.126 mg/kg p.o., Day 6 | 0.126 mg/kg p.o., Day 7 | 0.4 mg/kg p.o., Day 6 | 0.4 mg/kg p.o., Day 7
17%: 1.26 mg/kg p.o., Day 9
8% and 0.3%: 12.6 mg/kg p.o., Day 14
8%: 1.26 mg/kg p.o., Day 8
100%: 0.126 mg/kg p.o., Day 14 | 0.4 mg/kg p.o., Day 14 | 1.26 mg/kg p.o., Day 12 | 1.26 mg/kg p.o., Day 14
83%: 0.126 mg/kg p.o., Day 10 | 0.126 mg/kg p.o., Day 12 | 0.4 mg/kg p.o., Day 10 | 0.4 mg/kg p.o., Day 12 | 1.26 mg/kg p.o., Day 10
58%: 0.126 mg/kg p.o., Day 9 | 0.4 mg/kg p.o., Day 9
50%: 0.126 mg/kg p.o., Day 8 | 0.4 mg/kg p.o., Day 8 | 4.0 mg/kg p.o., Day 14
17% and 16.7%: 4.0 mg/kg p.o., Day 12
